Source: paper PMC4779111, “A Human Renal Proximal Tubule Cell Line with Stable Organic Anion Transporter 1 and 3 Expression Predictive for Antiviral-Induced Toxicity” (The AAPS Journal, 2016)
Structures can show the parent of a compound that is named as a salt. Where two headings read alike, the source gives them in different places.

T1: OAT1 (Homo sapiens, UniProt Q4U2R8)
T1 sequence (Q4U2R8 1-563): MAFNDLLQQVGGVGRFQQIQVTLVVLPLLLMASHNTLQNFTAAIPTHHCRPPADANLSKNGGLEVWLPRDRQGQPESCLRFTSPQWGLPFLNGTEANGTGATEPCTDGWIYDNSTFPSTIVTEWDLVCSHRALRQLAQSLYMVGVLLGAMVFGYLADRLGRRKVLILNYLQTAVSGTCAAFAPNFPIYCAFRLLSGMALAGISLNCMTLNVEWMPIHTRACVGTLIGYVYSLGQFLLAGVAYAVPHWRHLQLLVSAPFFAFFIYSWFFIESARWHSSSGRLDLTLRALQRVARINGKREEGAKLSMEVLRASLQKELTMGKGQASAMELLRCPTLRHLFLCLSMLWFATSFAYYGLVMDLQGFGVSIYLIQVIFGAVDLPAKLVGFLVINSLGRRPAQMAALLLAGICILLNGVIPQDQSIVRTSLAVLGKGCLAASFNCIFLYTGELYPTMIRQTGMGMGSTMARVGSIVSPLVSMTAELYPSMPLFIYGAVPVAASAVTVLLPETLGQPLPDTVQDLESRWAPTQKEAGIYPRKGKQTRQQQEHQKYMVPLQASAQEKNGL

T2: OAT3 (Homo sapiens, UniProt Q8TCC7)
T2 sequence (Q8TCC7 1-542): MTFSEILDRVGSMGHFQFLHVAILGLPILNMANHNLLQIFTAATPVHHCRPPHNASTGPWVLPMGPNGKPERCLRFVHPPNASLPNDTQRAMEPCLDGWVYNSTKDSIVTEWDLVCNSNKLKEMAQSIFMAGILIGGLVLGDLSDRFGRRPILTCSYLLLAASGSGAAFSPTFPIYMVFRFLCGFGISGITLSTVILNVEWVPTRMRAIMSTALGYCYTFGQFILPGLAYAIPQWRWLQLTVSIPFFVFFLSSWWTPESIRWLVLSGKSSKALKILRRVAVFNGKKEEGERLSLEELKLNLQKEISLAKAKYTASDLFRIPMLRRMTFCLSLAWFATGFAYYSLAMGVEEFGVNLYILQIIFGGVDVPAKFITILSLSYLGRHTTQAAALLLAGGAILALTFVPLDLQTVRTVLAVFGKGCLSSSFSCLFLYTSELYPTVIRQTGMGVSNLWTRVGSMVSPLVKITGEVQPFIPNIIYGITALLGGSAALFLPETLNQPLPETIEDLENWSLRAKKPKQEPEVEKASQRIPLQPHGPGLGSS


Tests used:
[1] = MTT viability assay, ciPTEC-OAT1; assay type: cell-based, human; conditions: human, ciPTEC-OAT1 cells (monolayers, 96-well); for IC50 at 24 h: read-out: IC50 on cell viability (MTT), 24 h; for IC50 at 72 h: read-out: IC50 on cell viability (MTT), 72 h
[2] = system: ciPTEC-OAT1; assay: MTT viability assay, ciPTEC-OAT1; assay type: cell-based, human; conditions: for Cell viability (MTT): ciPTEC-OAT1, 1 mM, 48 h, serum-free medium; for Cell viability (MTT), concentration and time dependence: ciPTEC-OAT1, 24, 48 and 72 h
[3] = system: ciPTEC-OAT3; assay: MTT viability assay, ciPTEC-OAT3; assay type: cell-based, human; conditions: for Cell viability (MTT), concentration and time dependence: ciPTEC-OAT3, 24, 48 and 72 h
Description: Cell toxicity was analyzed further in presence of MRP and BCRP efflux inhibitors MK571 (5 μM) and KO143 (10 μM).

[4] = molecular target: T1, OAT1; design: method as in PMID 23856525; conditions: substrate PAH, HeLa-OAT1; read-out: IC50 (literature); cited from earlier work
[5] = plasma, maximal free plasma concentration, 47 (zidovudine), cited from earlier work
[6] = system: hOAT1-CHO and HEK-OAT1; conditions: cited from earlier work
[7] = design: method as in PMID 19445515; conditions: cited from earlier work
[8] = molecular target: T1, OAT1; assay: Inhibition of OAT-mediated fluorescein uptake in ciPTEC-OAT1; assay type: cell-based; design: host or cells: ciPTEC (human conditionally immortalized proximal tubule epithelial cells), lentiviral transduction; conditions: for Effect on OAT-mediated fluorescein uptake (in words): ciPTEC-OAT1, fluorescein 1 μM, 10 min; for DDI index Cmax/IC50: ciPTEC-OAT1, with the second-listed (higher) Cmax
Description: (§1) All chemicals were obtained from Sigma, unless stated otherwise. Uptake was stopped by washing three times with ice-cold HBSS (4°C).
(§2) Non-linear regression with variable slope constraining the top to 100% was used to fit the data after background subtraction with GraphPad Prism. Statistics was performed by two-way ANOVA (two-tailed, α = 0.05) using GraphPad Prism as well. All data is presented as mean ± SEM of at least three separate experiments (n = 3) performed in triplicate, unless stated otherwise.

[9] = molecular target: T2, OAT3; assay: Inhibition of OAT-mediated fluorescein uptake in ciPTEC-OAT3
Description: as §1, §2

[10] = molecular target: T2, OAT3; conditions: substrate estrone sulfate, Xenopus-OAT3; read-out: IC50 (literature); cited from earlier work
[11] = molecular target: T1, OAT1; assay: OAT1-mediated fluorescein uptake kinetics in ciPTEC-OAT1; assay type: cell-based; design: host or cells: ciPTEC (human conditionally immortalized proximal tubule epithelial cells), lentiviral transduction
Description: as §1

[12] = molecular target: T2, OAT3; assay: OAT3-mediated fluorescein uptake kinetics in ciPTEC-OAT3; assay type: cell-based; design: host or cells: ciPTEC (human conditionally immortalized proximal tubule epithelial cells), lentiviral transduction; conditions: n = 4
Description: as §1

[13] = substrate: O=C1OC2(c3ccc(O)cc3Oc3cc(O)ccc32)c2ccccc21; assay: cells, lysate or membranes; conditions: other: fluorescein uptake, 10 min, Michaelis-Menten with linear diffusion, mean ± SEM, n = 4; 37.0 °C
[14] = first-listed (lower) value per drug, ref 40 (adefovir), 42 (cidofovir), 45 (tenofovir)
[15] = second-listed (higher) value per drug, ref 41 (adefovir), 43 (cidofovir), 46 (tenofovir)
[16] = 120 h, OAT1 overexpression cells, read-out: IC50 on cell viability (literature), 120 h
[17] = read-out: IC50 on cell viability (literature), 48 h, OAT1 overexpression cells

Row | Molecule | IC50 at 48 h [1] [µM] | IC50 at 24 h [1] [µM] | IC50 at 72 h [1] [µM] | Cell viability (MTT) [2] | Cell viability (MTT), concentration and time dependence [2] | Cell viability (MTT), concentration and time dependence [3] | Cmax [5, 14] [µM] | Cmax [5, 15] [µM] | IC50 [6, 16] [µM] | IC50 [6, 17] [µM] | Renal excretion of unchanged drug (in words) [7] | IC50 [8] [µM] | Effect on OAT-mediated fluorescein uptake (in words) [8] | further results
1 | Nc1ncnc2c1ncn2CCOCP(=O)(O)O [Adefovir, adefovir] | 303 ± 38 | 462 ± 52 | 230 ± 37 | significantly affected cell viability | concentration- and time-dependent decrease in viability | less pronounced | 1.6 | 38.8 | 1.4 ± 0.7 | 0.22 ± 0.08 | largely excreted unchanged by the kidneys | 23 ± 4 | Concentration-dependent inhibition | IC50 [4]: 8.1 µM; DDI index Cmax/IC50 [8]: 4.2
2 | Nc1ccn(C[C@@H](CO)OCP(=O)(O)O)c(=O)n1 [Cidofovir, cidofovir] | 130 ± 58 | 613 ± 384 | 69 ± 2 | significantly affected cell viability | concentration- and time-dependent decrease in viability | less pronounced | 15.8 | 26.3 | 3 ± 1 | 0.5 ± 0.2 | largely excreted unchanged by the kidneys | 71 ± 34 | Concentration-dependent inhibition | 
3 | C[C@]12CC[C@@H]3c4ccc(OS(=O)(=O)O)cc4CC[C@H]3[C@@H]1CCC2=O [Estrone sulfate, estrone sulfate] |  |  |  |  |  |  |  |  |  |  |  |  |  | IC50 ([9]; read-out: IC50 of fluorescein uptake, ciPTEC-OAT3, fluorescein 1 μM, 10 min, HBSS 37°C, mean ± SEM, n = 4, cimetidine: apparent IC50 due to partial inhibition): 2.1 ± 0.3 µM; IC50 [10]: 3 µM
4 | O=C1OC2(c3ccc(O)cc3Oc3cc(O)ccc32)c2ccccc21 [Fluorescein, fluorescein] |  |  |  |  |  |  |  |  |  |  |  |  |  | Vmax ([11]; fluorescein uptake, 10 min, n = 4): 695 ± 84 RFU; Fluorescein affinity for OAT1 relative to OAT3 ([11]; from Km values of Table I): approximately fivefold higher; Kd ([11]; passive diffusion component kd of fluorescein uptake, n = 4): 2.4 ± 1.2 RFU*L/μmol; Vmax ([12]; fluorescein uptake, 10 min): 384 ± 103 RFU; Kd ([12]; passive diffusion component kd of fluorescein uptake): 4.3 ± 0.9 RFU*L/μmol
5 | Nc1ccc(C(=O)NCC(=O)O)cc1 [Para-aminohippuric acid, para-aminohippuric acid] |  |  |  |  |  |  |  |  |  |  |  |  |  | IC50 [9]: 152 ± 3 µM; Fluorescein uptake by flow cytometry in presence of inhibitor ([9]; transduced ciPTEC-OAT3, fluorescein 1 μM, 10 min, inhibitor 100 μM): sensitive to para-aminohippuric acid-induce inhibition
6 | C[C@H](Cn1cnc2c(N)ncnc21)OCP(=O)(O)O [Tenofovir, tenofovir] | 189 ± 48 | 114 ± 25 | 223 ± 67 | significantly affected cell viability | concentration- and time-dependent decrease in viability | less pronounced | 0.52 | 0.72 | 21 ± 7 | 10 ± 2 | largely excreted unchanged by the kidneys | 42 ± 8 | Concentration-dependent inhibition | Cell viability (MTT) ([3]; ciPTEC-OAT3, 1 mM, 48 h, serum-free medium): slightly decreased; IC50 [4]: 29.3 µM; DDI index Cmax/IC50 [8]: 0.019
7 | OAT3 (Homo sapiens) (protein) MTFSEILDRVGSMGHFQFLHVAILGLPILNMANHNLLQIFTAATPVHHCRPPHNASTGPWVLPMGPNGKPERCLRFVHPPNASLPNDTQRAMEPCLDGWVYNSTKDSIVTEWDLVCNSNKLKEMAQSIFMAGILIGGLVLGDLSDRFGRRPILTCSYLLLAASGSGAAFSPTFPIYMVFRFLCGFGISGITLSTVILNVEWVPTRMRAIMSTALGYCYTFGQFILPGLAYAIPQWRWLQLTVSIPFFVFFLSSWWTPESIRWLVLSGKSSKALKILRRVAVFNGKKEEGERLSLEELKLNLQKEISLAKAKYTASDLFRIPMLRRMTFCLSLAWFATGFAYYSLAMGVEEFGVNLYILQIIFGGVDVPAKFITILSLSYLGRHTTQAAALLLAGGAILALTFVPLDLQTVRTVLAVFGKGCLSSSFSCLFLYTSELYPTVIRQTGMGVSNLWTRVGSMVSPLVKITGEVQPFIPNIIYGITALLGGSAALFLPETLNQPLPETIEDLENWSLRAKKPKQEPEVEKASQRIPLQPHGPGLGSS |  |  |  |  |  |  |  |  |  |  |  |  |  | Km [13]: 3.7 ± 0.5 µM
8 | OAT1 (Homo sapiens) (protein) MAFNDLLQQVGGVGRFQQIQVTLVVLPLLLMASHNTLQNFTAAIPTHHCRPPADANLSKNGGLEVWLPRDRQGQPESCLRFTSPQWGLPFLNGTEANGTGATEPCTDGWIYDNSTFPSTIVTEWDLVCSHRALRQLAQSLYMVGVLLGAMVFGYLADRLGRRKVLILNYLQTAVSGTCAAFAPNFPIYCAFRLLSGMALAGISLNCMTLNVEWMPIHTRACVGTLIGYVYSLGQFLLAGVAYAVPHWRHLQLLVSAPFFAFFIYSWFFIESARWHSSSGRLDLTLRALQRVARINGKREEGAKLSMEVLRASLQKELTMGKGQASAMELLRCPTLRHLFLCLSMLWFATSFAYYGLVMDLQGFGVSIYLIQVIFGAVDLPAKLVGFLVINSLGRRPAQMAALLLAGICILLNGVIPQDQSIVRTSLAVLGKGCLAASFNCIFLYTGELYPTMIRQTGMGMGSTMARVGSIVSPLVSMTAELYPSMPLFIYGAVPVAASAVTVLLPETLGQPLPDTVQDLESRWAPTQKEAGIYPRKGKQTRQQQEHQKYMVPLQASAQEKNGL |  |  |  |  |  |  |  |  |  |  |  |  |  | Km [13]: 0.8 ± 0.1 µM
